Like-named read-outs stand apart in the source and are kept apart here. Values belong to the compound of their own block, whether it stands above or below them.
Assays:
[1] = log P by HPLC on reversed-phase column (C18), EEC directive 79/831 Annex V.A8; assay type: physicochemical; settings: for chromatographic logP: reversed-phase HPLC column (C18)
Method: a) The determination of the W by LC-MS in the acidic range is effected at pH 2.7, acetonitrile (contains 0.1% formic acid) and water as eluents; linear gradient from 10% acetonitrile to 95% acetonitrile, instrument: Agilent 1100 LC-System, Agilent MSD System, HTS PAL. The log P values reported in the tables and Preparation Examples above were determined in accordance with EEC directive 79/831 Annex V.A8 by HPLC (High Performance Liquid Chromatography) using a reversed-phase column (C18). Temperature 43° C. The calibration is effected with unbranched alkan-2-ones (having 3 to 16 carbon atoms), for which the log P values are known.

[2] = system: greenhouse red spider mite (Tetranychus urticae); assay: Tetranychus urticae spray test, OP-resistant (TETRUR); assay type: in vivo; settings: for efficacy: 100 g/ha, spray, after 6 days
Method: (§1) To produce a suitable active compound formulation, 1 part by weight of active compound is mixed with the stated amounts of solvent and emulsifier, and the concentrate is diluted with emulsifier-containing water to the desired concentration.
Discs of bean leaves (Phaseolus vulgaris) infested by all stages of the greenhouse red spider mite (Tetranychus urticae) are sprayed with an active compound formulation of the desired concentration.
After 6 days, the efficacy in % is determined 100% means that all the spider mites have been killed; 0% means that none of the spider mites have been killed. […]

[3] = system: larvae of the mustard beetle (Phaedon cochleariae); assay: Phaedon cochleariae spray test (PHAECO); assay type: in vivo; settings: for efficacy / pest or weed control at 100 g/ha: spray, after 7 days; for pest or weed control at 100 g/ha: read-out: efficacy
Method: Phaedon cochleariae—Spray Test (PHAECO)
(§2) To produce a suitable preparation of active compound, 1 part by weight of active compound is mixed with the stated amounts of solvent and emulsifier, and the concentrate is diluted with emulsifier-containing water to the desired concentration.
Discs of Chinese cabbage leaves (Brassica pekinensis) are sprayed with an active compound formulation of the desired concentration and, after drying, populated with larvae of the mustard beetle (Phaedon cochleariae).
After 7 days, the efficacy in % is determined. 100% means that all the beetle larvae have been killed; 0% means that no beetle larvae have been killed.
After the stated period of time, the effect in % is determined 100% means that all the beetle larvae have been killed; 0% means that no beetle larvae have been killed.

[4] = system: caterpillars of the armyworm (Spodoptera frugiperda); assay: Spodoptera frugiperda spray test (SPODFR); assay type: in vivo; settings: for efficacy: spray, after 7 days
Method: Spodoptera frugiperda—Spray Test (SPODFR)
as §1
Leaf discs of maize (Zea mays) are sprayed with an active compound formulation of the desired concentration and, after drying, populated with caterpillars of the armyworm (Spodoptera frugiperda).
After 7 days, the efficacy in % is determined. 100% means that all the caterpillars have been killed; 0% means that no caterpillars have been killed.
as §2
Leaf discs of maize (Zea mays) are sprayed with an active compound preparation of the desired concentration and, after drying, populated with caterpillars of the armyworm (Spodoptera frugiperda).
After the stated period of time, the effect in % is determined. 100% means that all the caterpillars have been killed; 0% means that no caterpillars have been killed.

[5] = system: Boophilus microplus; assay: Boophilus microplus test (BOOPMI injection); assay type: in vivo; settings: 20 μg/animal, after 7 days
Method: Boophilus microplus Test (BOOPMI Injection) [table] To produce a suitable active compound formulation, 10 mg of active compound are mixed with 0.5 ml of solvent and the concentrate is diluted with solvent to the desired concentration. The active compound solution is injected into the abdomen (Boophilus microplus), and the animals are transferred into dishes and stored in a climate-controlled room. After 7 days, the efficacy in % is determined. The activity is assessed by laying of fertile eggs. 100% means that none of the ticks has laid any fertile eggs.

[6] = system: Lucilia cuprina larvae; assay: Lucilia cuprina test (LUCICU); assay type: in vivo; settings: 100 ppm, after 2 days
Method: (§3) Lucilia cuprina Test (LUCICU) [table] To produce a suitable active compound formulation, 10 mg of active compound are mixed with 0.5 ml of dimethyl sulfoxide, and the concentrate is diluted with water to the desired concentration. Vessels containing horse meat treated with the active compound formulation of the desired concentration are populated with about 20 Lucilia cuprina larvae. After 2 days, the kill in % is determined 100% means that all the larvae have been killed; 0% means that none of the larvae have been killed.

[7] = system: Ctenocephalides felis; assay: Ctenocephalides felis; oral (CTECFE); assay type: in vivo; settings: 100 ppm, oral in cattle blood, after 2 days
Method: Ctenocephalides felis; Oral (CTECFE)
To produce a suitable active compound formulation, 10 mg of active compound are mixed with 0.5 ml of dimethyl sulphoxide. A portion of the concentrate is diluted with citrated cattle blood, and the desired concentration is prepared.
About 20 unfed adult fleas (Ctenocephalides felis) are placed into a chamber which is closed at the top and bottom with gauze. A metal cylinder whose bottom end is closed with parafilm is placed onto the chamber. The cylinder contains the blood/active compound preparation, which can be imbibed by the fleas through the parafilm membrane.
After 2 days, the kill in % is determined 100% means that all fleas have been killed; 0% means that none of the fleas have been killed.

[8] = system: adult Musca domestica; assay: Musca domestica test (MUSCDO); assay type: in vivo; settings: 100 ppm, after 2 days
Method: as §3, with “Musca domestica” for “Lucilia cuprina”, “(MUSCDO)” for “(LUCICU)”, “a sponge” for “horse meat”, “adult Musca domestica.” for “about 20 Lucilia cuprina larvae.”, “flies” for “the larvae”, “no flies” for “none of the larvae”

[9] = HPLC, acidic range pH 2.7, 43° C.
[10] = Phaedon cochleariae, 168 h, 100 g/ha
[11] = HPLC, acidic range pH 2.7, 43° C., read-out: log p

Compound: CCn1c(C(=O)NC(c2cccc(C(F)(F)F)c2)C(F)(F)F)cc2cc(C(=O)NC3CCC3)c(C)nc21 (stereo not drawn) [Compound 5]
- log p [1, 9]: 3.89
- efficacy [2]: 90%
- efficacy ([3]; 100 g/ha): 100%

Compound: CCn1c(C(=O)NC(c2cccc(C(F)(F)F)c2)C(F)(F)F)cc2cc(C(=O)NCc3ccccn3)c(C)nc21 (stereo not drawn) [Compound 7]
- log p [1, 9]: 2.99
- efficacy [2]: 90%

- log p [1, 9]: 3.39
Compound: CCn1c(C(=O)NC(c2ccc(F)c(Cl)c2)C(F)(F)F)cc2cc(C(=O)NC3CC3)c(C)nc21 (stereo not drawn) [Compound 9]
- efficacy ([4]; 100 g/ha): 100%
- efficacy ([3]; 20 g/ha): 100%

Compound: CCn1c(C(=O)NC(c2ccc(F)c(Cl)c2)C(F)(F)F)cc2cc(C(=O)NC(C)C)c(Cl)nc21 (stereo not drawn) [Compound 17]
- log p [1, 9]: 3.88
- efficacy [2]: 100%

Compound: C#CCn1c(C(=O)NC(c2cccc(C(F)(F)F)c2)C(F)(F)F)cc2cc(C(=O)NC3CC3)c(Cl)nc21 (stereo not drawn) [Compound 23]
- log p [1, 9]: 3.45
- efficacy ([4]; 100 g/ha): 100%
- efficacy [2]: 90%
- efficacy (laying of fertile eggs) [5]: 100%
- efficacy (kill) [6]: 100%
- efficacy ([3]; 100 g/ha): 100%

Compound: C#CCn1c(C(=O)NC(c2cccc(C(F)(F)F)c2)C(F)(F)F)cc2cc(C(=O)NC3CCC3)c(Cl)nc21 (stereo not drawn) [Compound 25]
- log p [1, 9]: 3.79
- efficacy [2]: 90%
- efficacy ([3]; 100 g/ha): 100%

Compound: CCn1c(C(=O)NC(c2cc(Cl)cc(Cl)c2)C(F)(F)F)cc2cc(C(=O)NC3CC3)c(Cl)nc21 (stereo not drawn) [Compound 28]
- efficacy (kill) [7]: 95%
- efficacy ([4]; 100 g/ha): 100%
- efficacy (laying of fertile eggs) [5]: 100%
- efficacy (kill) [6]: 100%
- efficacy ([3]; 100 g/ha): 100%
- efficacy (kill) [8]: 100%

- log p [1, 9]: 4.32
Compound: CCn1c(C(=O)NC(c2cc(Cl)c(F)c(Cl)c2F)C(F)(F)F)cc2cc(C(=O)NC3(C#N)CC3)c(Cl)nc21 (stereo not drawn) [Compound 31]
- efficacy ([4]; 100 g/ha): 100%
- efficacy ([3]; 100 g/ha): 100%

Compound: CCn1c(C(=O)NC(c2cccc(C(F)(F)F)c2)C(F)(F)F)cc2cc(C(=O)NC3COC3)c(Cl)nc21 (stereo not drawn) [Compound 39]
- log p [1, 9]: 3.28
- efficacy [2]: 90%
- efficacy ([3]; 100 g/ha): 100%

Compound: CCn1c(C(=O)NC(c2ccc(F)c(Cl)c2)C(F)(F)F)cc2cc(C(=O)NCc3ccccn3)c(Cl)nc21 (stereo not drawn) [Compound 58]
- log p [1, 9]: 3.17
- efficacy (kill) [7]: 100%
- efficacy [2]: 100%
- efficacy (laying of fertile eggs) [5]: 100%
- efficacy (kill) [6]: 100%
- efficacy ([3]; 100 g/ha): 100%

Compound: CCn1c(C(=O)NC(c2cc(Cl)c(F)c(Cl)c2)C(F)(F)F)cc2cc(C(=O)NCc3ccccn3)c(Cl)nc21 (stereo not drawn) [Compound 60]
- log p [1, 9]: 3.67
- efficacy (kill) [7]: 95%
- efficacy [2]: 90%
- efficacy (laying of fertile eggs) [5]: 100%
- efficacy (kill) [6]: 100%
- efficacy ([3]; 100 g/ha): 100%

Compound: CCn1c(C(=O)NC(c2ccc(F)c(C(F)(F)F)c2)C(F)(F)F)cc2cc(C(=O)NC3(C(N)=S)CC3)c(Cl)nc21 (stereo not drawn) [Compound 66]
- log p [1, 9]: 3.64
- efficacy ([4]; 100 g/ha): 100%
- efficacy [2]: 100%
- efficacy ([3]; 100 g/ha): 100%

- log p [1, 9]: 3.85
Compound: C#CCn1c(C(=O)NC(c2cc(Cl)c(F)c(Cl)c2)C(F)(F)F)cc2cc(C(=O)NC3CC3)c(Cl)nc21 (stereo not drawn) [Compound 68]
- efficacy ([4]; 100 g/ha): 100%
- efficacy ([3]; 100 g/ha): 100%

- log p [1, 9]: 4.01
Compound: C#CCn1c(C(=O)NC(c2cc(Cl)c(F)c(Cl)c2F)C(F)(F)F)cc2cc(C(=O)NC3CC3)c(Cl)nc21 (stereo not drawn) [Compound 69]
- efficacy ([4]; 100 g/ha): 100%
- efficacy ([3]; 100 g/ha): 100%

- log p [1, 9]: 3.55
Compound: C#CCn1c(C(=O)NC(c2ccc(F)c(C(F)(F)F)c2)C(F)(F)F)cc2cc(C(=O)NC3CC3)c(Cl)nc21 (stereo not drawn) [Compound 70]
- efficacy ([4]; 100 g/ha): 100%
- efficacy ([3]; 100 g/ha): 100%

- log p [1, 9]: 4.21
Compound: CCn1c(C(=O)NC(c2cc(Cl)c(F)c(Cl)c2F)C(F)(F)F)cc2cc(C(=O)NC3CC3)c(C)nc21 (stereo not drawn) [Compound 71]
- efficacy ([4]; 100 g/ha): 100%
- efficacy ([3]; 100 g/ha): 100%

- log p [1, 9]: 4.00
Compound: CCn1c(C(=O)NC(c2cc(Cl)c(F)c(Cl)c2)C(F)(F)F)cc2cc(C(=O)NC3CC3)c(C)nc21 (stereo not drawn) [Compound 72]
- efficacy ([4]; 100 g/ha): 100%
- efficacy ([3]; 100 g/ha): 100%

- log p [1, 9]: 4.00
Compound: CCn1c(C(=O)NC(c2cccc(C(F)(F)F)c2)C(F)(F)F)cc2cc(C(=O)NC3CC3)c(C(F)(F)F)nc21 (stereo not drawn) [Compound 73]
- efficacy ([4]; 100 g/ha): 100%
- efficacy ([3]; 100 g/ha): 100%

- log p [1, 9]: 3.93
Compound: CCn1c(C(=O)NC(c2cccc(C(F)(F)F)c2)C(F)(F)F)cc2cc(C(=O)NC3(C#N)CC3)c(C(F)(F)F)nc21 (stereo not drawn) [Compound 74]
- efficacy ([4]; 100 g/ha): 100%
- efficacy ([4]; 500 g/ha): 100%
- efficacy ([3]; 100 g/ha): 100%
- efficacy ([3]; 500 g/ha): 100%

Compound: CCn1c(C(=O)NC(c2ccc(F)c(C(F)(F)F)c2)C(F)(F)F)cc2cc(C(=O)NC3CC3)c(C)nc21 (stereo not drawn) [Compound 76]
- log p [1, 9]: 3.67
- efficacy ([4]; 100 g/ha): 100%
- efficacy [2]: 100%
- efficacy ([3]; 100 g/ha): 100%

- chromatographic logP ([1]; pH 2.7, final compounds of the synthesis examples, read-out: log P (HPLC-MS)): 3.16
Compound: CCn1c(C(=O)NC(c2cccc(C(F)(F)F)c2)C(F)(F)F)cc2cc(CNC(C)=O)c(C)nc21 (stereo not drawn) [Compound 94, 5-(Acetamidomethyl)-1-ethyl-6-methyl-N-{2,2,2-trifluoro-1-[3-(trifluoromethyl)phenyl]ethyl}-1H-pyrrolo[2,3-b]pyridine-2-carboxamide]
- pest or weed control at 100 g/ha [3, 10]: 100%

- chromatographic logP [1, 11]: 3.63
Compound: CN(C(=O)c1cc2cc(C(=O)NC3CC3)c(Cl)nc2n1C)C(c1cccc(C(F)(F)F)c1)C(F)(F)F (stereo not drawn) [Compound 96]
- pest or weed control at 100 g/ha [3, 10]: 100%

- chromatographic logP [1, 11]: 3.59
Compound: CN(C(=O)c1cc2cc(C(=O)NC3(C#N)CC3)c(Cl)nc2n1C)C(c1cccc(C(F)(F)F)c1)C(F)(F)F (stereo not drawn) [Compound 97]
- pest or weed control at 100 g/ha [3, 10]: 100%

Compound: Cn1c(C(=O)NC(c2cccc(C(F)(F)F)c2)C(F)(F)F)cc2cc(C(=O)NC3CC3)c(Cl)cc21 (stereo not drawn) [reference compound]
- Emax at 4 g/ha ([4]; Spodoptera frugiperda, 168 h, SPODFR, 4 g of ai/ha, 7 d, read-out: % Efficacy dat): 17%
- Emax at 4 g/ha ([2]; Tetranychus urticae, 144 h, TETRUR, 4 g of ai/ha, 6 d, read-out: % Efficacy dat): 0%
- percent efficacy (larval mortality) at 0.8 g/ha ([3]; Phaedon cochleariae, 168 h, PHAECO, 0.8 g of ai/ha, 7 d, read-out: % Efficacy dat): 0%

Compound: CCn1c(C(=O)NC(c2cccc(C(F)(F)F)c2)C(F)(F)F)cc2cc(C(=O)NCC#N)c(Cl)cc21 (stereo not drawn) [reference compound]
- Emax at 100 g/ha ([2]; Tetranychus urticae, 144 h, TETRUR, 100 g of ai/ha, 6 d, read-out: % Efficacy dat): 0%

— patent US9345247B2, “Azaindole carboxylic acid amides and azaindole thiocarboxylic acid amides for use as insecticides and acaricides” (BAYER CROPSCIENCE AG, priority 2012, dated 2016)
